Measured values as given in patent US20250195513A1, “DEGRADATION OF IRAK4 BY CONJUGATION OF IRAK4 INHIBITORS WITH E3 LIGASE LIGAND AND METHODS OF USE” (BeiGene, Ltd., priority 2022, published 2025).

Columns and labels:
Assay type in all cases: cell-based
[1] = target: T1, IRAK4 (Homo sapiens, UniProt Q9NWZ3); experiment: IRAK4 Degradation Assay (Karpas299, HTRF/TR-FRET); details: Karpas-299 cells; for Dmax: maximum percentage of degradation
T1 construct: endogenous in cells; host or cells: Karpas299
T1 sequence (Q9NWZ3 1-460): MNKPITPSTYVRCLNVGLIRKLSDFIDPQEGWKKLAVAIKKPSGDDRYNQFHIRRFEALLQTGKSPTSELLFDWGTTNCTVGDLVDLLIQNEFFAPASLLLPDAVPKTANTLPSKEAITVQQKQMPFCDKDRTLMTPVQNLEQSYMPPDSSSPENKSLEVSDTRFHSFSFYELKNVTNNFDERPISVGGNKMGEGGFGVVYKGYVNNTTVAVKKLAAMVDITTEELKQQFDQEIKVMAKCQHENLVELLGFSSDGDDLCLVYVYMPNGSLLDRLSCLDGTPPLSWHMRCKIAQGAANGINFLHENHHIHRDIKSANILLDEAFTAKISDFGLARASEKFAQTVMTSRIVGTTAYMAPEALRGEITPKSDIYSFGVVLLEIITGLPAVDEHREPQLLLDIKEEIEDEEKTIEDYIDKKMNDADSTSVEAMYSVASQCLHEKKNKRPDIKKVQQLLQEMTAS
Summary of the method: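 Compound potency as DC50 (IC50) came from four-parameter fits of percent IRAK4 degradation. IRAK4 was measured by HTRF (665/620 nm) in lysates of Karpas299 cells seeded at 0.2 million per well. Cells had been treated with compound dilutions for 5 or 24 h.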

[2] = target: T1, IRAK4; experiment: IRAK4 Degradation Assay with Human Serum (Karpas299, HTRF/TR-FRET); details: Karpas-299 in human serum, 24 hrs treatment; for DC50: read-out: IRAK4 degradtion with human serum assay DC50; for Dmax: read-out: IRAK4 degradtion with human serum assay Dmax (%)
Summary of the method: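 Remaining IRAK4 measured by TR-FRET immunoassay on lysates of Karpas299 cells exposed 24 h to compound dilution series in human serum AB. DC50 derived from a Hill-slope fit of % degradation versus concentration.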

[3] = tested on: TNF-α production in THP-1 cells; experiment: TNF-α Production Assay in THP-1 Cells (LPS stimulated); details: Homo sapiens, THP-1, 24 h; for Emax: maximum inhibition, read-out: TNF-α (THP-1) 24 h IMax
Experimental: THP-1 cells maintained in RPMI 1640 medium (Thermo Scientific) supplemented with 10% FBS (Thermo Scientific), 100 units/mL penicillin and 0.1 mg/mL streptomycin (Thermo Scientific) were seeded into 96-well plates at the density of 0.2 million cells per well and then treated with compounds for 24 h. Lipopolysaccharide was subsequently added at the final concentration of 1 μg/mL for 24 h. Culture supernatant was collected for measurement of TNF-α concentration by a TR-FRET-based method (Degorce, François, et al. Current chemical genomics. 2009, 3: 22) as described by the manufacturer manual (Cisbio). FRET signals were measured using a PHERAstar FSX reader (BMG Labtech).

[4] = 24 h treatment, read-out: IRAK4 in Karpas-299 (24 h) Dmax (%)
[5] = 24 h treatment, read-out: IRAK4 in Karpas-299 (24 h) DC50
[6] = 5 h treatment, read-out: IRAK4 in Karpas-299 (5 h) Dmax (%)
[7] = 5 h treatment, read-out: IRAK4 in Karpas-299 (5 h) DC50

SMILES	Dmax [1, 4] [%]	DC50 [1, 5] [nM]	DC50 [2] [nM]	Dmax [2] [%]	IC50 [3] [nM]	Dmax [1, 6] [%]	DC50 [1, 7] [nM]	Emax [3] [%]
COC[C@H]1CN([C@H]2CC[C@H](n3cc4cc(NC(=O)c5ccc6cc(C#N)cnn56)c(C(C)(C)O)cc4n3)CC2)CCN1C(=O)C1CN(c2cc(F)c([C@H]3CCC(=O)NC3=O)c(F)c2)C1 [Example 185, 3-cyano-N-(2-((1R,4r)-4-((R)-4-(1-(4-((R)-2,6-dioxopiperidin-3-yl)-3,5-difluorophenyl)azetidine-3-carbonyl)-3-(methoxymethyl)piperazin-1-yl)cyclohexyl)-6-(2-hydroxypropan-2-yl)-2H-indazol-5-yl)pyrrolo[1,2-b]pyridazine-7-carboxamide]	96	0.7	14	100	12			91
C[C@H]1CN([C@H]2CC[C@H](n3cc4cc(NC(=O)c5ccc6cc(C#N)cnn56)c(C(C)(C)O)cc4n3)CC2)CCN1C(=O)C1CN(c2cc(F)c([C@H]3CCC(=O)NC3=O)c(F)c2)C1 [Example 311, 3-cyano-N-(2-((1S,4r)-4-((S)-4-(1-(4-((R)-2,6-dioxopiperidin-3-yl)-3,5-difluorophenyl)azetidine-3-carbonyl)-3-methylpiperazin-1-yl)cyclohexyl)-6-(2-hydroxypropan-2-yl)-2H-indazol-5-yl)pyrrolo[1,2-b]pyridazine-7-carboxamide]	98	0.8	15	99	29			91
COC[C@H]1CN([C@H]2CC[C@H](n3cc4cc(NC(=O)c5ccc6cc(C#N)cnn56)c(C(C)(C)O)cc4n3)CC2)CCN1C(=O)C1CN(c2cc(F)c(N3CCC(=O)NC3=O)c(F)c2)C1 [Example 315, 3-cyano-N-(2-((1R,4r)-4-((R)-4-(1-(4-(2,4-dioxotetrahydropyrimidin-1(2H)-yl)-3,5-difluorophenyl)azetidine-3-carbonyl)-3-(methoxymethyl)piperazin-1-yl)cyclohexyl)-6-(2-hydroxypropan-2-yl)-2H-indazol-5-yl)pyrrolo[1,2-b]pyridazine-7-carboxamide]	95	0.6	18	99	22	97	0.9	93
CC(C)(O)c1cc2nn([C@H]3C[C@H](N4CCN(C5CCN(c6cc(F)c([C@H]7CCC(=O)NC7=O)c(F)c6)CC5)CC4)C3)cc2cc1NC(=O)c1ccc2cc(C#N)cnn12 [Example 330, 3-cyano-N-(2-((1R,3r)-3-(4-(1-(4-((R)-2,6-dioxopiperidin-3-yl)-3,5-difluorophenyl)piperidin-4-yl)piperazin-1-yl)cyclobutyl)-6-(2-hydroxypropan-2-yl)-2H-indazol-5-yl)pyrrolo[1,2-b]pyridazine-7-carboxamide]	96	0.6	10	98	19			89
CC(C)(O)c1cc2nn(C34CC(N5CCN(CC6CN(c7cc(F)c(N8CCC(=O)NC8=O)c(F)c7)C6)CC5)(C3)C4)cc2cc1NC(=O)c1ccc2cc(C#N)cnn12 [Example 354, 3-cyano-N-(2-(3-(4-((1-(4-(2,4-dioxotetrahydropyrimidin-1(2H)-yl)-3,5-difluorophenyl)azetidin-3-yl)methyl)piperazin-1-yl)bicyclo[1.1.1]pentan-1-yl)-6-(2-hydroxypropan-2-yl)-2H-indazol-5-yl)pyrrolo[1,2-b]pyridazine-7-carboxamide]	98	2.4	10	93	44			96
COc1cc(N2CC(C(=O)N3CCN([C@H]4CC[C@H](n5cc6cc(NC(=O)c7ccc8cc(C#N)cnn78)c(C(C)(C)O)cc6n5)CC4)CC3)C2)ccc1N1CCC(=O)NC1=O [Example 269]	97	1.8	11	94	24			89
CC(C)(O)c1cc2nn([C@H]3CC[C@H](N4CCN(C(=O)C5CN(c6cc(F)c(N7CCC(=O)NC7=O)c(F)c6)C5)CC4)CC3)cc2cc1NC(=O)c1ccc2cc(C#N)cnn12 [Example 105, 3-cyano-N-(2-((1r,4r)-4-(4-(1-(4-(2,4-dioxotetrahydropyrimidin-1(2H)-yl)-3,5-difluorophenyl)azetidine-3-carbonyl)piperazin-1-yl)cyclohexyl)-6-(2-hydroxypropan-2-yl)-2H-indazol-5-yl)pyrrolo[1,2-b]pyridazine-7-carboxamide]	98	0.7	21	98	36	97	3.1	78

These reach a lower DC50 [1, 5]. Values come first.

Dmax [1, 4] [%]	DC50 [1, 5] [nM]	DC50 [2] [nM]	Dmax [2] [%]	IC50 [3] [nM]	Dmax [1, 6] [%]	DC50 [1, 7] [nM]	SMILES	Emax [3] [%]
99	0.5	5.4	96	17	95	1.9	COC[C@@H]1CN([C@H]2CC[C@H](n3cc4cc(NC(=O)c5ccc6cc(C#N)cnn56)c(C(C)(C)O)cc4n3)CC2)CCN1CC1CN(c2cc(F)c([C@H]3CCC(=O)NC3=O)c(F)c2)C1 [Example 358, 3-cyano-N-(2-((1S,4r)-4-((S)-4-((1-(4-((R)-2,6-dioxopiperidin-3-yl)-3,5-difluorophenyl)azetidin-3-yl)methyl)-3-(methoxymethyl)piperazin-1-yl)cyclohexyl)-6-(2-hydroxypropan-2-yl)-2H-indazol-5-yl)pyrrolo[1,2-b]pyridazine-7-carboxamide]	96
97	0.4	11	101	30	97	2	CC(C)(O)c1cc2nn([C@H]3CC[C@H](N4CCN(C(=O)[C@@H]5CCN(c6cc(F)c([C@H]7CCC(=O)NC7=O)c(F)c6)C5)CC4)CC3)cc2cc1NC(=O)c1ccc2cc(C#N)cnn12 [Example 181, 3-cyano-N-(2-((1R,4r)-4-(4-((R)-1-(4-((R)-2,6-dioxopiperidin-3-yl)-3,5-difluorophenyl)pyrrolidine-3-carbonyl)piperazin-1-yl)cyclohexyl)-6-(2-hydroxypropan-2-yl)-2H-indazol-5-yl)pyrrolo[1,2-b]pyridazine-7-carboxamide]	69
96	0.5	65	97	31			C[C@H]1CN(C(=O)C2CN(c3cc(F)c([C@H]4CCC(=O)NC4=O)c(F)c3)C2)CCN1[C@H]1CC[C@H](n2cc3cc(NC(=O)c4ccc5cc(C#N)cnn45)c(C(C)(C)O)cc3n2)CC1 [Example 304, 3-cyano-N-(2-((1S,4r)-4-((S)-4-(1-(4-((R)-2,6-dioxopiperidin-3-yl)-3,5-difluorophenyl)azetidine-3-carbonyl)-2-methylpiperazin-1-yl)cyclohexyl)-6-(2-hydroxypropan-2-yl)-2H-indazol-5-yl)pyrrolo[1,2-b]pyridazine-7-carboxamide]	88
